Activity calls are given as the source filed them. The rule behind the calls is not given here.
Tests used:
[1] = tested on: HepG2; assay: Hypolipidemic activity in sodium oleate and sodium palmitate induced human HepG2 cells assessed as decrease in intracellular lipid content at 50 uM by Oil Red O staining based assay; format: functional; design: scale not given: the % may be the effect or the level left
[2] = tested on: Mus musculus; assay: Amelioration of hepatic lesion in 24hrs fasted tyloxapol induced NAFLD Kunming mouse model assessed as reduction in fat deposition at 50 to 200 mg/kg, IG by Oil red O staining based analysis; format: functional, organism-based; settings: dose 50-200 mg/kg
[3] = tested on: HepG2; assay: Activation of AMPK signaling pathway in human HepG2 cells assessed as increase in AMPK phosphorylation at 0.2 to 50 uM by Western blot analysis; format: cell-based; settings: filed as activator, dose 0.2-50 µM
[4] = tested on: Mus musculus; assay: Hypolipidemic activity in 24hrs fasted tyloxapol induced NAFLD Kunming mouse model assessed as decrease in hepatic LDL-C level at 50 to 200 mg/kg, IG and measured after 24 hrs by biochemical analysis relative to control; format: functional, organism-based; settings: dose 50-200 mg/kg
[5] = tested on: Mus musculus; assay: Hypolipidemic activity in 24hrs fasted tyloxapol induced NAFLD Kunming mouse model assessed as increase in serum HDL-C level at 50 to 200 mg/kg, IG and measured after 24 hrs by biochemical analysis relative to control; format: functional, organism-based; settings: dose 50-200 mg/kg
[6] = tested on: Mus musculus; assay: Hypolipidemic activity in 24hrs fasted tyloxapol induced NAFLD Kunming mouse model assessed as decrease in epididymis in white adipose tissue at 200 mg/kg, IG relative to control; format: functional, organism-based
[7] = tested on: Mus musculus; assay: Hypolipidemic activity in 24hrs fasted tyloxapol induced NAFLD Kunming mouse model assessed as decrease in serum TC level at 50 to 200 mg/kg, IG and measured after 24 hrs by biochemical analysis relative to control; format: functional, organism-based; settings: dose 50-200 mg/kg
[8] = biological target: T1, Pancreatic triacylglycerol lipase (Homo sapiens) (UniProt P16233); assay: Inhibition of Pancreatic lipase (unknown origin) using 4-methylumbelleallyl oleate as substrate at 50 uM by microplate reader assay
T1 sequence (whole entry): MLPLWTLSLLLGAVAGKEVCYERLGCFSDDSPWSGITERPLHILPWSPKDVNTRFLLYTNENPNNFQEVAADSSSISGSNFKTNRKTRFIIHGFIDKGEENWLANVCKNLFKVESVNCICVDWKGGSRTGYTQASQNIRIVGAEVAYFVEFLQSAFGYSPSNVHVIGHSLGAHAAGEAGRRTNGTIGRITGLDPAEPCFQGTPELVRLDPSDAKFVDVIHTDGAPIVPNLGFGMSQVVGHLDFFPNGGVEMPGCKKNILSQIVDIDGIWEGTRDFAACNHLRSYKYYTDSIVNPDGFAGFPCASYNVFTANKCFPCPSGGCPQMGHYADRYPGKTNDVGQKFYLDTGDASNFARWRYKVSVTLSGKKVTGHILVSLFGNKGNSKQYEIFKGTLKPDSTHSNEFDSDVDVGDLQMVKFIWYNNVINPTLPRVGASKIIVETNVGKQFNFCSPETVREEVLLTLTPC

[9] = tested on: Mus musculus; assay: Reduction in oxidative stress in 24hrs fasted tyloxapol induced NAFLD Kunming mouse model assessed as increase in serum SOD level at 50 to 200 mg/kg, IG and measured after 24 hrs by biochemical analysis relative to control; format: functional, organism-based; settings: dose 50-200 mg/kg
[10] = tested on: Mus musculus; assay: Hypolipidemic activity in 24hrs fasted tyloxapol induced NAFLD Kunming mouse model assessed as decrease in spleen index at 50 to 200 mg/kg, IG relative to control; format: functional, organism-based; settings: dose 50-200 mg/kg
[11] = tested on: Mus musculus; assay: Reduction in liver damage in 24hrs fasted tyloxapol induced NAFLD Kunming mouse model assessed as decrease in ALT level in liver at 50 to 200 mg/kg, IG and measured after 24 hrs by biochemical analysis relative to control; format: functional, organism-based; settings: dose 50-200 mg/kg
[12] = Reduction in hepatic inflammation in 24hrs fasted tyloxapol induced NAFLD Kunming mouse model assessed as decrease in IL-6 level in liver at 200 mg/kg, IG and measured after 24 hrs; format: functional; design: scale not given: the % may be the effect or the level left
[13] = tested on: Mus musculus; assay: Hypolipidemic activity in 24hrs fasted tyloxapol induced NAFLD Kunming mouse model assessed as decrease in hepatic TC level at 50 to 200 mg/kg, IG and measured after 24 hrs by biochemical analysis relative to control; format: functional, organism-based; settings: dose 50-200 mg/kg
[14] = tested on: Mus musculus; assay: Hypolipidemic activity in 24hrs fasted tyloxapol induced NAFLD Kunming mouse model assessed as decrease in serum TG level at 50 to 200 mg/kg, IG and measured after 24 hrs by biochemical analysis relative to control; format: functional, organism-based; settings: dose 50-200 mg/kg
[15] = tested on: Mus musculus; assay: Amelioration of hepatic lesion in 24hrs fasted tyloxapol induced NAFLD Kunming mouse model assessed as reduction in liver index at 50 to 200 mg/kg, IG; format: functional, organism-based; settings: dose 50-200 mg/kg
[16] = Reduction in hepatic inflammation in 24hrs fasted tyloxapol induced NAFLD Kunming mouse model assessed as decrease in IL-6 level in liver at 50 mg/kg, IG and measured after 24 hrs; format: functional; design: scale not given: the % may be the effect or the level left
[17] = tested on: HepG2; assay: Hypolipidemic activity in sodium oleate and sodium palmitate induced human HepG2 cells assessed as decrease in intracellular lipid content at 0.2 uM by Oil Red O staining based assay; format: functional, cell-based
[18] = tested on: HepG2; assay: Hypolipidemic activity in sodium oleate and sodium palmitate induced human HepG2 cells assessed as decrease in intracellular triglyceride level at 5 uM; format: functional; design: scale not given: the % may be the effect or the level left
[19] = biological target: T1, Pancreatic triacylglycerol lipase (Homo sapiens); assay: Inhibition of Pancreatic lipase (unknown origin) using 4-methylumbelleallyl oleate as substrate at 5 uM by microplate reader assay
[20] = tested on: Mus musculus; assay: Reduction in liver damage in 24hrs fasted tyloxapol induced NAFLD Kunming mouse model assessed as decrease in serum ALT level at 50 to 200 mg/kg, IG and measured after 24 hrs by biochemical analysis relative to control; format: functional, organism-based; settings: dose 50-200 mg/kg
[21] = tested on: HepG2; assay: Hypolipidemic activity in sodium oleate and sodium palmitate induced human HepG2 cells assessed as decrease in intracellular triglyceride level at 50 uM; format: functional; design: scale not given: the % may be the effect or the level left
[22] = tested on: Mus musculus; assay: Amelioration of hepatic lesion in 24hrs fasted tyloxapol induced NAFLD Kunming mouse model assessed as reduction in fat deposition at 50 to 200 mg/kg, IG by H and E staining based analysis; format: functional, organism-based; settings: dose 50-200 mg/kg
[23] = tested on: Mus musculus; assay: Amelioration of hepatic lesion in 24hrs fasted tyloxapol induced NAFLD Kunming mouse model assessed as reduction in hepatic steatosis at 50 to 200 mg/kg, IG by Oil red O staining based analysis; format: functional, organism-based; settings: dose 50-200 mg/kg
[24] = tested on: HepG2; assay: Hypolipidemic activity in sodium oleate and sodium palmitate induced human HepG2 cells assessed as decrease in intracellular lipid content at 5 uM by Oil Red O staining based assay; format: functional; design: scale not given: the % may be the effect or the level left
[25] = tested on: HepG2; assay: Hypolipidemic activity in sodium oleate and sodium palmitate induced human HepG2 cells assessed as decrease in intracellular triglyceride level at 1 uM; format: functional; design: scale not given: the % may be the effect or the level left
[26] = tested on: HepG2; assay: Anti-hyperglycemic activity in 24 hrs serum deprived human HepG2 cells assessed as alleviation in insulin resistance by measuring increase in cellular glucose consumption at 0.2 to 50 uM and measured after 24 hrs by glucose kit anlaysis; format: functional, cell-based; settings: dose 0.2-50 µM
[27] = tested on: Mus musculus; assay: Reduction in oxidative stress in 24hrs fasted tyloxapol induced NAFLD Kunming mouse model assessed as decrease in hepatic MPO level at 50 to 200 mg/kg, IG and measured after 24 hrs by biochemical analysis relative to control; format: functional, organism-based; settings: dose 50-200 mg/kg
[28] = tested on: Mus musculus; assay: Hypolipidemic activity in 24hrs fasted tyloxapol induced NAFLD Kunming mouse model assessed as decrease in hepatic TG level at 50 to 200 mg/kg, IG and measured after 24 hrs by biochemical analysis relative to control; format: functional, organism-based; settings: dose 50-200 mg/kg
[29] = tested on: Mus musculus; assay: Amelioration of hepatic lesion in 24hrs fasted tyloxapol induced NAFLD Kunming mouse model assessed as reduction in hepatic steatosis at 50 to 200 mg/kg, IG by H and E staining based analysis; format: functional, organism-based; settings: dose 50-200 mg/kg
[30] = tested on: HepG2; assay: Hypolipidemic activity in sodium oleate and sodium palmitate induced human HepG2 cells assessed as decrease in intracellular triglyceride level at 10 uM; format: functional; design: scale not given: the % may be the effect or the level left
[31] = tested on: Mus musculus; assay: Reduction in liver damage in 24hrs fasted tyloxapol induced NAFLD Kunming mouse model assessed as decrease in serum AST level at 50 to 200 mg/kg, IG and measured after 24 hrs by biochemical analysis relative to control; format: functional, organism-based; settings: dose 50-200 mg/kg
[32] = tested on: HepG2; assay: Hypolipidemic activity in sodium oleate and sodium palmitate induced human HepG2 cells assessed as decrease in intracellular lipid content at 0.2 to 50 uM by Oil Red O staining based assay; format: functional, cell-based; settings: dose 0.2-50 µM
[33] = tested on: HepG2; assay: Hypolipidemic activity in sodium oleate and sodium palmitate induced human HepG2 cells assessed as decrease in intracellular triglyceride level at 0.2 uM; format: functional; design: scale not given: the % may be the effect or the level left
[34] = tested on: Mus musculus; assay: Reduction in liver damage in 24hrs fasted tyloxapol induced NAFLD Kunming mouse model assessed as decrease in AST level in liver at 50 to 200 mg/kg, IG and measured after 24 hrs by biochemical analysis relative to control; format: functional, organism-based; settings: dose 50-200 mg/kg
[35] = tested on: Mus musculus; assay: Hypolipidemic activity in 24hrs fasted tyloxapol induced NAFLD Kunming mouse model assessed as increase in hepatic HDL-C level at 50 to 200 mg/kg, IG and measured after 24 hrs by biochemical analysis relative to control; format: functional, organism-based; settings: dose 50-200 mg/kg
[36] = tested on: Mus musculus; assay: Hypolipidemic activity in 24hrs fasted tyloxapol induced NAFLD Kunming mouse model assessed as decrease in serum LDL-C level at 50 to 200 mg/kg, IG and measured after 24 hrs by biochemical analysis relative to control; format: functional, organism-based; settings: dose 50-200 mg/kg
[37] = Reduction in hepatic inflammation in 24hrs fasted tyloxapol induced NAFLD Kunming mouse model assessed as decrease in IL-6 level in liver at 100 mg/kg, IG and measured after 24 hrs; format: functional; design: scale not given: the % may be the effect or the level left
[38] = tested on: Mus musculus; assay: In vivo activation of AMPK pathway in 24hrs fasted tyloxapol induced NAFLD Kunming mouse model assessed as increase in AMPK phosphorylation in liver at 200 mg/kg, IG and measured after 24 hrs by Western blot anlaysis; format: functional, organism-based
[39] = tested on: Mus musculus; assay: In vivo activation of AMPK pathway in 24hrs fasted tyloxapol induced NAFLD Kunming mouse model assessed as increase in ACC phosphorylation in liver at 200 mg/kg, IG and measured after 24 hrs by Western blot anlaysis; format: functional, organism-based
[40] = tested on: HepG2; assay: Activation of AMPK signaling pathway in human HepG2 cells assessed as increase in ACC phosphorylation at 0.2 to 50 uM by Western blot analysis; format: cell-based; settings: filed as activator, dose 0.2-50 µM
[41] = tested on: Mus musculus; assay: Amelioration of hepatic lesion in 24hrs fasted tyloxapol induced NAFLD Kunming mouse model assessed as reduction in liver morphology alteration at 50 to 200 mg/kg, IG; format: functional, organism-based; settings: dose 50-200 mg/kg
[42] = tested on: HepG2; assay: Cytotoxicity against human HepG2 cells assessed as reduction in cell survival at 50 uM; format: toxicity, cell-based; settings: hepg2, 50 µM

O=C(O)CC(=O)OC[C@H]1O[C@@H](Oc2cc(O)c3c(=O)cc(-c4ccc(O)cc4)oc3c2)[C@H](O)[C@@H](O)[C@@H]1O
Activity [1]: 67.3% | Activity [2]: Active | Activity [3]: Active | Activity [4]: Active | Activity [5]: Active | Activity [6]: Active | Activity [7]: Active | inhibition [8]: 47.2% | Activity [9]: Active | Activity [10]: Active | Activity [11]: Active | Activity [12]: 18.03% | Activity [13]: Active | Activity [14]: Active | Activity [15]: Active | Activity [16]: 23.68% | Activity [17]: Active | Activity [18]: 54.7% | inhibition [19]: 35% | Activity [20]: Active | Activity [21]: 73% | Activity [22]: Active | Activity [23]: Active | Activity [24]: 74.9% | Activity [25]: 52.2% | Activity [26]: Active | Activity [27]: Active | Activity [28]: Active | Activity [29]: Active | Activity [30]: 55.1% | Activity [31]: Active | Activity [32]: Dose-Dependent Effect | Activity [33]: 48.6% | Activity [34]: Active | Activity [35]: Active | Activity [36]: Active | Activity [37]: 22.44% | Activity [38]: Active | Activity [39]: Active | Activity [40]: Active | Activity [41]: Active | Activity [42]: Non-Toxic

O=C(O)CC(=O)OC[C@H]1O[C@@H](Oc2cc(O)c3c(=O)cc(-c4ccc(O)c(O)c4)oc3c2)[C@H](O)[C@@H](O)[C@@H]1O
Activity [1]: 57.1% | inhibition [8]: 65.8% | Activity [24]: 61.5% | Activity [42]: Non-Toxic

O=c1cc(-c2ccc(O)c(O)c2)oc2cc(O)cc(O)c12 [LUTEOLIN]
inhibition [8]: 41.2% | inhibition [19]: 27.4% | Activity [24]: 91.6% | Activity [42]: Toxic

O=c1cc(-c2ccc(O)cc2)oc2cc(O)cc(O)c12 [APIGENIN]
inhibition [8]: 56.3% | inhibition [19]: 26.7% | Activity [24]: 92.4% | Activity [42]: Toxic

From ChEMBL document CHEMBL5321223, “Effects and mechanism of action of Chrysanthemum morifolium (Jinsi Huangju) on hyperlipidemia and non-alcoholic fatty liver disease” (Eur J Med Chem, 2023)
